Measured values as given in patent US12636298B2, “Composition with L-theanine and fructooligosaccharides for human memory enhancement” (HARKE Pharma GmbH, priority 2019, dated 2026).

What was measured:
mice [1] = assay: Water maze test (MT-01 vs FOS and L-theanine); type: in vivo; settings: for Error count during testing phase: MT-01 both, control 4.11
Experimental: Furthermore, to test the hypothesis that administration of M. officinalis FOS and L-theanine in a ratio of about 2:1 L-theanine:FOS synergistically enhance mice memory, we have performed a step-down passive avoidance test and a water maze test. This was employed to assess the effect of M. officinalis FOS and L-theanine individually on mice memory compared to their collective effect when administrated in combination in a ratio of about 2:1 L-theanine:FOS (MT-01) (FIG. 1). Maze test was performed to further confirm the hypothesis. […] We analysed the synergy between FOS and L-theanine in the formulation by calculating the coefficient of drug interaction (CDI), as shown in Table 1.

KumMing (KM) mice = assay: Passive avoidance test (embodiment 1); type: in vivo, mouse
Description: The Passive Avoidance Test (Solomon and Wynne, 1954; Solomon and Turner, 1960) is a fear-aggravated task employed to evaluate learning and memory in rodent models. In this test, subjects learn to avoid an environment in which an aversive stimulus (such as a foot-shock) was previously delivered. The test chamber is divided into a light compartment and a dark compartment, with a gate between the two. Animals are allowed to explore both compartments on the first day. On the following day, they are given a mild foot shock in one of the compartments. Animals will learn to associate certain properties of the chamber with the foot shock. In order to test their learning and memory, the mice are then placed back in the compartment where no shock was delivered. Mice with normal learning and memory will avoid entering the chamber where they had previously been exposed to the shock. This is measured by recording the latency to cross through the gate between the compartments. “Learning” is the period where mice were trained in this test (Table 1 and 2). Mice were tested at 24 or 48 hours after learning and the results were recorded (“Test column” in Table 1 and 2). “Fade” indicates re-testing of mice 5 days after learning (“Fade column” Table 1 and 2). Error percentage indicates the percentage of mice that have been shocked during the test. Our research was undertaken with KumMing (KM) mice (Dai et al. 2012; Ma et al. 2013). In each test, 48 KM mice were separated into 4 groups, 12 mice per group. A negative-control group was also included in the test and mock treated. […] We subsequently, tested different doses of embodiment 1, 0.1, 0.2 or 0.3 g/kg of mouse body weight (bw) of embodiment 1, consisting of a combination of fructooligoscharide and L-theanine, in the passive avoidance test.

mice [2] = assay: Step-down passive avoidance test (MT-01 vs FOS and L-theanine); type: in vivo; settings: for Error count during testing phase: MT-01 both, control 2.33; for latency during the retention phase (FIG. 1c): comparison between groups
Description: Furthermore, to test the hypothesis that administration of M. officinalis FOS and L-theanine in a ratio of about 2:1 L-theanine:FOS synergistically enhance mice memory, we have performed a step-down passive avoidance test and a water maze test. This was employed to assess the effect of M. officinalis FOS and L-theanine individually on mice memory compared to their collective effect when administrated in combination in a ratio of about 2:1 L-theanine:FOS (MT-01) (FIG. 1).
We analysed the synergy between FOS and L-theanine in the formulation by calculating the coefficient of drug interaction (CDI), as shown in Table 1.

[3] = Low dose: L-theanine 66, FOS 33 mg/kg·bw
[4] = Medium dose: L-theanine 134, FOS 66 mg/kg·bw
[5] = doses g/kg·bw: Embodiment 1 0.01, L-Theanine 0.0067, Fructooligosaccharide 0.0033, 24 or 48 hours after learning
[6] = doses g/kg·bw: Embodiment 1 0.01, L-Theanine 0.0067, Fructooligosaccharide 0.0033, 5 days after learning
[7] = doses g/kg·bw: Embodiment 1 0.01, L-Theanine 0.0067, Fructooligosaccharide 0.0033, training period

CCNC(=O)CC[C@H](N)C(=O)O [L-theanine]
Error count during testing phase (mice [1]; High dose: L-theanine 200, FOS 100 mg/kg·bw): 2.41
Error count during testing phase (mice [1]; [3]): 2.45
Error count during testing phase (mice [1]; [4]): 2.95
time to escape during the test (FIG. 1a) (mice [1]; all doses, compared to control group, p<0.05): significantly (p<0.05) less time to escape
escape time during test (mice [1]; medium and high dose, between MT-01, L-theanine and FOS): no significant differences
impact on rodent memory in the mouse passive avoidance test (KumMing (KM) mice; Table 1 doses, vs control): neither fructooligoscharide nor L-theanine alone have a positive impact on rodent memory
Test Error Count (KumMing (KM) mice; [5]): 1.22 ± 1.14
Test Incubation period (KumMing (KM) mice; [5]): 232.13 ± 70.71 s
Fade Error Count (KumMing (KM) mice; [6]): 1.40 ± 1.07
Fade Incubation period (KumMing (KM) mice; [6]): 267.80 ± 51.03 s
Learning Error Count (KumMing (KM) mice; [7]): 3.90 ± 1.52
Learning Incubation period (KumMing (KM) mice; [7]): 48.30 ± 10.71 s
Error count during testing phase (mice [2]; [3]): 0.83
Error count during testing phase (mice [2]; [4]): 1.00
latency during the retention phase (FIG. 1c) (mice [2]; high dose): higher latency
latency during the retention phase (FIG. 1c) (mice [2]; low dose): neither the FOS-only nor L-theanine-only group show any significant difference
